The values that follow come from ChEMBL document CHEMBL1122538, “Functional group contributions to drug-receptor interactions” (J Med Chem, 1984).

This series can be described thus: Binding energy by using the equation deltaG obsd = -RT ln KD. The class given is ADME.

In turn, `c1ccc2c(c1)OCC(CN1CCCCC1)O2` (stereo unspecified) [PIPEROXAN] returned a Binding energy of 10.7 kcal/mol. Next, `NC1(C(=O)O)CCCC1` [CYCLOLEUCINE]: 4.9 kcal/mol; `N=C(N)N/N=C/c1c(Cl)cccc1Cl` [GUANABENZ]: 12.3 kcal/mol; `CC(C(=O)O)c1ccc(-c2ccccc2)c(F)c1` (stereo unspecified) [FLURBIPROFEN]: 9.1 kcal/mol. Next, `C[C@]12CCC(=O)C=C1CC[C@@H]1[C@@H]2[C@@H](O)C[C@]2(C=O)[C@@H](C(=O)CO)CC[C@@H]12` [ALDOSTERONE]: 12.7 kcal/mol; `CN1Cc2c(N)cccc2C(c2ccccc2)C1` (stereo unspecified) [NOMIFENSINE]: 8.8 kcal/mol; `CC(=O)OCC[N+](C)(C)C` [ACETYLCHOLINE]: 11.1 kcal/mol.

`O=c1oc2ccccc2c(O)c1Cc1c(O)c2ccccc2oc1=O` [DICUMAROL] had a Binding energy of 8.8 kcal/mol.

For `CC(=O)OC(Cc1ccc(C=O)cc1)c1ccc(C=O)cc1` (stereo unspecified), the Binding energy amounted to 6.4 kcal/mol. Next, `C[C@]12CCC(=O)C[C@@H]1CC[C@@H]1[C@@H]2CC[C@]2(C)[C@@H](O)CC[C@@H]12` (stereo in doubt) [STANOLONE]: 6.8 kcal/mol. In the case of `O=C(CCCN1CCC(O)(c2ccc(Cl)cc2)CC1)c1ccc(F)cc1` [HALOPERIDOL], the Binding energy was 12.3 kcal/mol. Next, `O=c1cccc2n1C[C@@H]1CNC[C@H]2C1` [CYTISINICLINE]: 12.1 kcal/mol; `CN(C)CCC=C1c2ccccc2COc2ccccc21` [DOXEPIN]: 13.1 kcal/mol. Next, `Nc1cc(Cl)c(N=C2NCCN2)c(Cl)c1` [APRACLONIDINE]: 12.7 kcal/mol; `OC[C@H]1OC(O)[C@H](O)[C@@H](O)[C@@H]1O` (stereo partly specified) [DEXTROSE]: 8.7 kcal/mol; `C[C@@H]1C[C@H]2[C@@H]3CCC4=CC(=O)C=C[C@]4(C)[C@@]3(F)[C@@H](O)C[C@]2(C)[C@@]1(O)C(=O)CO` [DEXAMETHASONE]: 10.9 kcal/mol. In the case of `CCC1(CC=C2CCCCC2)C(=O)NC(=O)NC1=O`, the Binding energy stood at 8.4 kcal/mol. Next, `O=C1CCCN1CC#CCN1CCCC1` [OXOTREMORINE]: 11.7 kcal/mol.

`O=P(O)(O)O` [PHOSPHORIC ACID] registered a Binding energy of 7.7 kcal/mol. Take `CNCCC(Oc1ccccc1OC)c1ccccc1` (stereo unspecified) [NISOXETINE]: the Binding energy came to 11.5 kcal/mol. Next, `C=C1CC[C@H](O)C/C1=C/C=C1\CCC[C@]2(C)[C@@H]([C@H](C)CCC(O)C(C)(C)O)CC[C@@H]12` (stereo partly specified): 13.2 kcal/mol; `O=C1CN=C(c2ccccn2)c2cc(Br)ccc2N1` [BROMAZEPAM]: 10.3 kcal/mol. With `CN1C(=O)CN=C(c2ccccc2)c2cc(Cl)ccc21` [DIAZEPAM] the figure was 11.5 kcal/mol. The molecule `CC(Cc1ccccc1)NCCC(c1ccccc1)c1ccccc1` (stereo unspecified) [PRENYLAMINE] registered a Binding energy of 8.2 kcal/mol. For `Cc1c(Cc2ccc(Cl)cc2)cnc2nc(N)nc(N)c12`, the Binding energy turned out to be 13.2 kcal/mol. Next, `CSc1ccc2c(c1)N(CCC1CCCCN1C)c1ccccc1S2` (stereo unspecified) [THIORIDAZINE]: 11 kcal/mol.

In turn, `O=C(O)CC(CC(=O)CP(=O)(O)O)C(=O)O` (stereo unspecified) yielded a Binding energy of 10.9 kcal/mol.

`CCCCC1C(=O)N(c2ccccc2)N(c2ccccc2)C1=O` [PHENYLBUTAZONE] gave a Binding energy of 7.3 kcal/mol. Next, `Oc1ccccc1` [PHENOL]: 2.7 kcal/mol.

In turn, `CCCCC[C@H](O)/C=C/[C@H]1[C@H](O)CC(=O)[C@@H]1C/C=C\CCCC(=O)O` [DINOPROSTONE] yielded a Binding energy of 11.5 kcal/mol.

In turn, `CCCCC[C@H](O)/C=C/[C@@H]1[C@@H](C/C=C\CCCC(=O)O)[C@@H](O)C[C@H]1O` [DINOPROST] displayed a Binding energy of 9.2 kcal/mol.

`CCc1nc(N)nc(N)c1-c1ccc(Cl)cc1` [PYRIMETHAMINE] gave a Binding energy of 9.7 kcal/mol. Next, `NCCc1c[nH]c2ccccc12` [TRYPTAMINE]: 7.9 kcal/mol; `CCCCCc1ccc2nc(N)nc(N)c2c1C`: 18.7 kcal/mol; `CN1[C@@H]2CC[C@H]1C[C@@H](OC(c1ccccc1)c1ccccc1)C2` [BENZTROPINE]: 12.6 kcal/mol. With `Cl[C@H]1[C@H](Cl)[C@@H](Cl)[C@@H](Cl)[C@H](Cl)[C@H]1Cl` [LINDANE] the figure was 6.1 kcal/mol; with `O=C(CCCN1CCC(n2c(O)nc3ccccc32)CC1)c1ccc(F)cc1` [BENPERIDOL], 12.2 kcal/mol; with `CC(=O)CC(c1ccccc1)c1c(O)c2ccccc2oc1=O` (stereo unspecified) [WARFARIN], 6.9 kcal/mol. With `Oc1ncnc2[nH]ncc12` [ALLOPURINOL] the figure was 12.5 kcal/mol; with `NCCc1ccccc1` [PHENETHYLAMINE], 5.5 kcal/mol; with `CC(=O)O` [ACETIC ACID], 3.1 kcal/mol. With `CC(=O)CC(=O)C(=O)O`, the Binding energy came to 9.1 kcal/mol. Take `CN1CCc2cccc3c2[C@H]1Cc1ccc(O)c(O)c1-3` [APOMORPHINE]: the Binding energy amounted to 11.9 kcal/mol. With `C[C@]12CC[C@@H]3c4ccc(O)cc4CC[C@H]3[C@@H]1CC[C@@H]2O` [ESTRADIOL] the figure was 13.2 kcal/mol; with `C[C@H]1[C@H]2C(=O)c3ccc(O)cc3[C@]1(C)CCN2CC1CC1` [KETAZOCINE], 11.4 kcal/mol.

`O=P(O)(O)OC[C@H]1OC(O)(COP(=O)(O)O)[C@@H](O)[C@@H]1O` (stereo partly specified) [FOSFRUCTOSE] showed a Binding energy of 10.2 kcal/mol. Next, `NCCc1ccc(O)c(O)c1` [DOPAMINE]: 11.8 kcal/mol; `NC[C@H](O)c1ccc(O)c(O)c1` [NOREPINEPHRINE]: 12.1 kcal/mol; `CCCCC[C@H](O)/C=C/[C@H]1[C@H](O)CC(=O)[C@@H]1CCCCCCC(=O)O` [ALPROSTADIL]: 11.2 kcal/mol. With `NC(=O)C(N)Cc1ccccc1` (stereo unspecified) the figure was 6.1 kcal/mol; with `O=C1CC(=O)N([C@@H]2O[C@H](COP(=O)(O)O)[C@@H](O)[C@H]2O)C(=O)N1`, 15.1 kcal/mol. In the case of `O=C(O)c1ccc(C(=O)O)c(C(=O)O)c1`, the Binding energy amounted to 5.2 kcal/mol. In turn, `NCCc1c[nH]c2ccc(O)cc12` [SEROTONIN] yielded a Binding energy of 8.9 kcal/mol. On to `O=C1CCN([C@H]2C[C@H](O)[C@@H](COP(=O)(O)O)O2)C(=O)N1`, for which the Binding energy came out at 10.9 kcal/mol. With `O=P(O)(O)C#CCCO` the figure was 3.4 kcal/mol; with FLUPENTIXOL, 11.5 kcal/mol; with `CC(C)(C)NC[C@H](O)COc1nsnc1N1CCOCC1` [TIMOLOL], 13 kcal/mol.

In the case of `CN(C)CCC=C1c2ccccc2CCc2ccccc21` [AMITRIPTYLINE], the Binding energy amounted to 12.3 kcal/mol. With `O=P(O)(O)O[C@H]1OC[C@@H](O)[C@H](O)[C@H]1O` the figure was 6.2 kcal/mol; with `CNC(=O)Oc1cccc2c1OC(C)(C)C2` [CARBOFURAN], 4.6 kcal/mol; with `O=C(O)C(Cc1ccccc1)OP(=O)(O)O` (stereo unspecified), 9.3 kcal/mol. In turn, `CCN` [ETHYLAMINE] yielded a Binding energy of 2.2 kcal/mol.

Molecule `CN(C)CCOC(c1ccc(Cl)cc1)c1ccccn1` (stereo unspecified) [CARBINOXAMINE] came in with a Binding energy of 12.3 kcal/mol. The molecule `CC(C)Cc1cnc2nc(N)nc(N)c2n1` displayed a Binding energy of 12.3 kcal/mol. With `Cc1ncc(CO)c(CN[C@@H](C)C(=O)O)c1O` the figure was 9.2 kcal/mol; with `COc1ccc2cc([C@H](C)C(=O)O)ccc2c1` [NAPROXEN], 8.5 kcal/mol. Molecule `CN1[C@@H]2C[C@@H](OC(=O)[C@H](CO)c3ccccc3)C[C@H]1[C@@H]1O[C@@H]12` [SCOPOLAMINE] yielded a Binding energy of 12.9 kcal/mol. With `CN(C)CCc1c[nH]c2ccc(O)cc12` [BUFOTENINE] the figure was 9.4 kcal/mol. With `CC[C@H](C)[C@H](N)C(=O)O` [ISOLEUCINE] the figure was 7.1 kcal/mol. Next, `CCCC(CCC)C(=O)O` [VALPROIC ACID]: 6.1 kcal/mol. Molecule `CC[C@@H]1C(=O)OC[C@@H]1Cc1cncn1C` [PILOCARPINE] had a Binding energy of 10.1 kcal/mol.

`Nc1nc(N)c2nc(Cc3ccccc3)cnc2n1` yielded a Binding energy of 12.3 kcal/mol.

`COc1cc(CCN)cc(OC)c1OC` [MESCALINE] showed a Binding energy of 7.1 kcal/mol. With `N/C=C(\OP(=O)(O)O)C(=O)O` the figure was 10.5 kcal/mol; with `CN(Cc1cnc2nc(N)nc(N)c2n1)c1ccc(C(=O)N[C@@H](CCC(=O)O)C(=O)O)cc1` [METHOTREXATE], 12.9 kcal/mol. Next, `O=C(O)CCc1ccccc1` [PHENYL PROPIONIC ACID]: 5.5 kcal/mol; `CC(N)Cc1ccccc1` (stereo unspecified) [AMPHETAMINE]: 6.8 kcal/mol; `CC(C)NCC(O)COc1cccc2ccccc12` (stereo unspecified) [PROPRANOLOL]: 12.8 kcal/mol. Next, `O=C(c1ccc(F)cc1)C1CCN(CCn2c(=O)[nH]c3ccccc3c2=O)CC1` [KETANSERIN]: 12.8 kcal/mol; `O=C(O)Cc1cc(I)c(Oc2ccc(O)c(I)c2)c(I)c1` [TIRATRICOL]: 9.3 kcal/mol. `COc1cc(Cc2cnc(N)nc2N)cc(OC)c1OC` [TRIMETHOPRIM] came in with a Binding energy of 11.5 kcal/mol.

On to `O=C(NO)C(O)P(=O)(O)O` (stereo unspecified), for which the Binding energy was determined as 10.9 kcal/mol. Next, `NC(CO)Cc1ccccc1` (stereo unspecified): 7.1 kcal/mol; `Clc1ccc(C(c2ccc(Cl)cc2)C(Cl)(Cl)Cl)cc1` [CHLOROPHENOTHANE]: 7.6 kcal/mol.

With `NCc1cc(=O)[nH]o1` [MUSCIMOL], the Binding energy was 11.9 kcal/mol. In the case of `O=C(O)CCCC[C@@H]1SC[C@@H]2NC(=O)N[C@@H]21` [BIOTIN], the Binding energy was determined as 20.5 kcal/mol.
